Measurements published in ChEMBL document CHEMBL1136625, “Substituted quinolines induce inhibition of proliferation of HTLV-1 infected cells” (2003).

How the values were obtained:
[1] = system: Human T-cell leukemia virus type I; assay: Inhibitory activity against human T-lymphotropic virus type 1 (HTLV-1) infected HUT-102 cells at 10 uM; assay type: functional; details: Primate T-lymphotropic virus 1, HuT-102
Homo sapiens = organism: Homo sapiens; assay: Inhibitory activity against human T-lymphotropic virus type 1 (HTLV-1) infected HUT-102 cells at 50 uM; assay type: functional

| Compound | inhibition at 10 µM [1] [%] | inhibition at 50 µM (Homo sapiens) [%] |
| --- | --- | --- |
| COc1ccc(/C=C/c2ccc3ccccc3n2)cc1OC | 0 |  |
| COc1ccc(C(O)Cc2ccc3ccccc3n2)cc1OC (centres undefined) | 0 |  |
| COC(=O)/C=C/c1ccc2ccccc2n1 | 4 |  |
| CCCCCCCCCCCCCCc1ccc2ccccc2n1 | 12 |  |
| CC(=O)Cc1ccc2ccccc2n1 |  | 0 |
| OC/C=C/c1ccc2ccccc2n1 | 0 |  |
| CC(O)Cc1ccc2cccc(O)c2n1 (centres undefined) | 85 |  |
| C(=C\c1ccc2ccccc2n1)/c1ccccc1 | 0 |  |
| CC1OC1c1ccc2ccccc2n1 (centres undefined) | 0 |  |
| CC/C=C/c1ccc2ccccc2n1 | 0 |  |
| C(#Cc1cnc2ccccc2c1)CCC#Cc1cnc2ccccc2c1 | 82 |  |
| CCCc1ccc2ccccc2n1 | 0 |  |
| c1ccc2nc(CCc3ccc4c(c3)OCO4)ccc2c1 | 50 |  |
| CC(C)c1ccc2ccccc2n1 | 0 |  |
| c1ccc(C2OC2c2ccc3ccccc3n2)cc1 (centres undefined) | 0 |  |
| COC(=O)/C=C/c1ccc2cc(C)ccc2n1 | 45 |  |
| c1ccc(-c2ccc3ccccc3n2)cc1 [2-PHENYLQUINOLINE] | 0 |  |
| C(=C\c1ccc2ccccc2n1)/c1ccc2ccccc2n1 |  | 0 |
| OC(c1ccc2ccccc2n1)C1CC1 (centres undefined) | 0 |  |
| C=Cc1ccc2ccccc2n1 | 87 |  |
| [O-][n+]1c(/C=C/c2ccccc2)ccc2ccccc21 | 86 |  |
| CCC/C=C/c1ccc2ccccc2n1 | 46 |  |
| OC(Cc1ccc2ccccc2n1)c1ccccc1 (centres undefined) | 16 |  |
| O=C/C=C/c1ccc2ccccc2n1 | 34 |  |
| CCCCCc1ccc2ccccc2n1 | 0 |  |
| C[Si](C)(C)C#Cc1ccc2ccccc2n1 | 87 |  |
| BrC(Br)=Cc1ccc2ccccc2n1 | 0 |  |
| O=[N+]([O-])/C=C/c1ccc2ccccc2n1 |  | 0 |
| CCCCCCCCCCCC/C=C/c1ccc2ccccc2n1 | 6 |  |
